The values below are quoted from earlier work in patent publication US20250231185A1, “Coronavirus T Cell Epitopes, Megapools and Uses Thereof” (La Jolla Institute for Immunology, priority 2021, published 2025).

The data set has as its system CD4+ T cells. To be noted: cited from earlier work; for Allele(s): HLA class II allele(s) identified as MHC restriction elements of the CD4 epitope; for Dominant: SARS-CoV-2-derived CD4 epitopes, Yes = recognized by 3 or more donors/different studies; for Restriction: T cell subset (CD4 or CD8) recognizing the SARS-CoV-2 epitope; for Allele(s) (HLA restriction): CD4-restricted epitopes, HLA class II alleles identified as MHC restriction elements.

Entries after “also recorded” stand apart in the source; their conditions may differ.

Regarding 46 (SGFAAYSRYRIGNYK) [compound 46], the “Allele(s)” value is “DRB1*15:01”, the Dominant entry is “Yes (more dominant epitopes are defined by being recognized by 3 or more donors/different studies)” and the Restriction result was “CD4”.
With 95 (GTWLTYTGAIKLDDK) [compound 95], the Dominant entry is given as “Yes (more dominant epitopes are defined by being recognized by 3 or more donors/different studies)” and the Restriction entry is “CD4”.
Take 67 (LPYGANKDGIIWVAT) [compound 67]: the Restriction entry was “CD4”.
As to 7 (NLVIGFLFLTWICLL) [compound 7], the “Allele(s)” value was “DQB1*05:01, DRB1*01:02” and the Restriction entry is listed as “CD4”.
As to 2 (FLLVTLAILTALRLC) [compound 2], the Restriction result is given as “CD4”.
For the substance 8 (FLFLTWICLLQFAYA) [compound 8], the “Allele(s)” value is given as “DQB1*05:01, DQB1*05:03,; also recorded: DRB1*01:02” and the Restriction result is listed as “CD4”.
As for 53 (ASWFTALTQHGKEDL) [compound 53], the Dominant result was “Yes (more dominant epitopes are defined by being recognized by 3 or more donors/different studies)” and the Restriction entry is on record as “CD4”.
In the case of 86 (TDYKHWPQIAQFAPS) [compound 86], the Restriction result is given as “CD4”.
In the case of 91 (AFFGMSRIGMEVTPS) [compound 91], the Restriction entry is given as “CD4”.
Regarding 93 (GMEVTPSGTWLTYTG) [compound 93], the Restriction entry is given as “CD4”.
Turning to 66 (RWYFYYLGTGPEAGL) [compound 66], the Dominant result is reported as “Yes (more dominant epitopes are defined by being recognized by 3 or more donors/different studies)” and the Restriction result is “CD4”.
With 74 (DAALALLLLDRLNQL) [compound 74], the “Allele(s)” value was “DQB1*05:01, DQB1*05:03,; also recorded: DQB1*06:02, DRB1*03:01,; also recorded: DRB1*11:01, DRB1*12:01,; also recorded: DRB1*14:01, DRB1*15:01”; the Dominant entry is “Yes (more dominant epitopes are defined by being recognized by 3 or more donors/different studies)”; the Restriction result is listed as “CD4”.
44 (LGASQRVAGDSGFAA) [compound 44]: the Dominant result was “Yes (more dominant epitopes are defined by being recognized by 3 or more donors/different studies)” and the Restriction result was “CD4”.
For 30 (GAVILRGHLRIAGHHLGR) [compound 30], the Dominant entry is recorded as “Yes (more dominant epitopes are defined by being recognized by 3 or more donors/different studies)” and the Restriction entry is “CD4”.
As for 39 (ATSRTLSYYKLGASQ) [compound 39], the “Allele(s)” value is recorded as “DQB1*05:01, DQB1*05:03,; also recorded: DRB1*16:01” and the Restriction entry is reported as “CD4”.
For the substance 70 (IWVATEGALNTPKDH) [compound 70], the Restriction entry is on record as “CD4”.
As for 43 (SYYKLGASQRVAGDS) [compound 43], the “Allele(s)” value is on record as “DQB1*03:01, DRB1*01:01,; also recorded: DRB1*07:01”; the Dominant entry is on record as “Yes (more dominant epitopes are defined by being recognized by 3 or more donors/different studies)”; the Restriction entry was “CD4”.
For the substance 115 (IATNGPLKVGGSCVL) [compound 115], the “Allele(s)” value is on record as “DRB1*13:02” and the Restriction entry is given as “CD4”.
As for 87 (YKHWPQIAQFAPSAS) [compound 87], the Dominant result is recorded as “Yes (more dominant epitopes are defined by being recognized by 3 or more donors/different studies)” and the Restriction result is recorded as “CD4”.
Take 76 (GKGQQQQGQTVTKKS) [compound 76]: the Restriction result is “CD4”.
41 (SRTLSYYKLGASQRV) [compound 41]: the “Allele(s)” value is given as “DRB5*01:01, DRB5*01:02”; the Dominant result is listed as “Yes (more dominant epitopes are defined by being recognized by 3 or more donors/different studies)”; the Restriction result is “CD4”.
On to 34 (LRIAGHHLGRCDIKD) [compound 34], for which the Restriction entry is listed as “CD4”.
As for 85 (LIRQGTDYKHWPQIA) [compound 85], the Dominant result was “Yes (more dominant epitopes are defined by being recognized by 3 or more donors/different studies)” and the Restriction entry is listed as “CD4”.
Turning to 11 (NRNRFLYIIKLIFLW) [compound 11], the “Allele(s)” value is “DQB1*02:01, DQB1*05:03,; also recorded: DRB1*03:01, DRB1*12:01” and the Restriction entry is reported as “CD4”.
As to 4 (FYVYSRVKNLNSSRV) [compound 4], the Dominant entry is recorded as “Yes (more dominant epitopes are defined by being recognized by 3 or more donors/different studies)” and the Restriction entry is reported as “CD4”.
As for 45 (RVAGDSGFAAYSRYR) [compound 45], the Restriction entry is reported as “CD4”.
Turning to 35 (IAGHHLGRCDIKDLP) [compound 35], the Dominant result is listed as “Yes (more dominant epitopes are defined by being recognized by 3 or more donors/different studies)” and the Restriction entry is on record as “CD4”.
For the substance 97 (LTYTGAIKLDDKDPN) [compound 97], the “Allele(s)” value is “DRB1*07:01” and the Restriction entry is reported as “CD4”.
With 3 (LAILTALRLCAYCCN) [compound 3], the “Allele(s)” value is on record as “DRB1*01:01, DRB1*11:01” and the Restriction entry is “CD4”.
Turning to 19 (CLVGLMWLSYFIASF) [compound 19], the “Allele(s)” value is reported as “DQB1*05:01, DQB1*05:03,; also recorded: DRB1*12:01, DRB1*12:02”; the Dominant entry was “Yes (more dominant epitopes are defined by being recognized by 3 or more donors/different studies)”; the Restriction entry is on record as “CD4”.
With 59 (IGYYRRATRRIRGGD) [compound 59], the Dominant result is “Yes (more dominant epitopes are defined by being recognized by 3 or more donors/different studies)” and the Restriction entry is “CD4”.
Regarding 15 (VLAAVYRINWITGGI) [compound 15], the “Allele(s)” value is “DQB1*05:01, DQB1*05:03,; also recorded: DRB1*12:02, DRB1*14:01”; the Dominant entry is “Yes (more dominant epitopes are defined by being recognized by 3 or more donors/different studies)”; the Restriction result is listed as “CD4”.
As for 23 (TRSMWSFNPETNILL) [compound 23], the “Allele(s)” value is “DQB1*05:03, DRB1*01:02” and the Restriction entry is on record as “CD4”.
Consider 50 (PQNQRNAPRITFGGP) [compound 50], for which the Restriction entry is reported as “CD4”.
108 (EEIAIILASFSASTS) [compound 108]: the “Allele(s)” value is listed as “DQB1*02:02, DQB1*03:02,; also recorded: DRB1*04:10, DRB1*07:01” and the Restriction entry was “CD4”.
In the case of 13 (LIFLWLLWPVTLACF) [compound 13], the “Allele(s)” value is “DQB1*05:01, DQB1*05:03,; also recorded: DRB1*01:02” and the Restriction result was “CD4”.
For the substance 89 (QFAPSASAFFGMSRI) [compound 89], the “Allele(s)” value is given as “DRB1*07:01” and the Restriction entry is “CD4”.
Regarding 14 (LLWPVTLACFVLAAV) [compound 14], the “Allele(s)” value is on record as “DQB1*05:01, DQB1*05:03,; also recorded: DQB1*06:03” and the Restriction result is given as “CD4”.
In the case of 257 (VKHVYQLRARSVSPK) [compound 257], the “Allele(s) (HLA restriction)” value is listed as “DRB1*01:03, DRB1*07:01”.
Take 68 (NKDGIIWVATEGALN) [compound 68]: the “Allele(s)” value is reported as “DQB1*02:01, DQB1*02:02,; also recorded: DQB1*03:02, DQB1*05:03,; also recorded: DRB1*04:04, DRB1*07:01”; the Dominant result was “Yes (more dominant epitopes are defined by being recognized by 3 or more donors/different studies)”; the Restriction result is given as “CD4”.
Turning to 17 (ITGGIAIAMACLVGL) [compound 17], the “Allele(s)” value is “DQB1*03:01” and the Restriction result is listed as “CD4”.
Consider 56 (FPRGQGVPINTNSSP) [compound 56], for which the Restriction result is “CD4”.
For the substance 61 (TRRIRGGDGKMKDLS) [compound 61], the Restriction entry was “CD4”.
As for 77 (AAEASKKPRQKRTAT) [compound 77], the Dominant result is listed as “Yes (more dominant epitopes are defined by being recognized by 3 or more donors/different studies)” and the Restriction result is listed as “CD4”.
104 (KQQTVTLLPAADLDDF) [compound 104]: the Restriction result was “CD4”.
Regarding 253 (YIINLIIKNLSKSLT) [compound 253], the “Allele(s) (HLA restriction)” value is reported as “DRB1*11:02, DRB1*13:03”.
As to 33 (RGHLRIAGHHLGRCD) [compound 33], the “Allele(s)” value is reported as “DRB1*07:01, DRB1*13:01,; also recorded: DRB1*14:01, DRB1*15:01”; the Dominant result is recorded as “Yes (more dominant epitopes are defined by being recognized by 3 or more donors/different studies)”; the Restriction entry was “CD4”.
Consider 75 (LLLLDRLNQLESKMS) [compound 75], for which the “Allele(s)” value is recorded as “DQB1*05:01, DRB1*03:01,; also recorded: DRB1*11:01, DRB1*12:01,; also recorded: DRB1*14:01, DRB1*15:01”; the Dominant entry was “Yes (more dominant epitopes are defined by being recognized by 3 or more donors/different studies)”; the Restriction result is listed as “CD4”.
In the case of 25 (TNILLNVPLHGTILT) [compound 25], the “Allele(s)” value is listed as “DRB1*10:01, DRB1*12:02,; also recorded: DRB1*14:01, DRB1*14:06,; also recorded: DRB1*15:01, DRB1*16:02”; the Dominant entry is listed as “Yes (more dominant epitopes are defined by being recognized by 3 or more donors/different studies)”; the Restriction entry is “CD4”.
For 38 (KEITVATSRTLSYYK) [compound 38], the “Allele(s)” value is reported as “DQB1*06:03, DRB1*03:01,; also recorded: DRB1*07:01, DRB1*14:01,; also recorded: DRB1*14:06, DRB1*15:01,; also recorded: DRB1*16:02”; the Dominant entry is “Yes (more dominant epitopes are defined by being recognized by 3 or more donors/different studies)”; the Restriction result is reported as “CD4”.
69 (KDGIIWVATEGALNT) [compound 69]: the Dominant result is given as “Yes (more dominant epitopes are defined by being recognized by 3 or more donors/different studies)” and the Restriction result is given as “CD4”.
Take 65 (PRWYFYYLGTGPEAG) [compound 65]: the “Allele(s)” value is given as “DQB1*02:01, DQB1*05:03” and the Restriction result is listed as “CD4”.
On to 55 (LTQHGKEDLKFPRGQ) [compound 55], for which the Restriction entry is reported as “CD4”.
